Experimental findings from ChEMBL document CHEMBL4765391, “Design, synthesis, and Structure-Activity Relationships (SAR) of 3-vinylindazole derivatives as new selective tropomyosin receptor kinases (Trk) inhibitors” (Eur J Med Chem, 2020) are described below.

Assay [1] addresses High affinity nerve growth factor receptor (Homo sapiens, UniProt P04629). Briefly: Inhibition of TrkA (unknown origin) using Tyr1 peptide as substrate in presence of ATP measured after 2 hrs by FRET-based Z-Lyte kinase assay.
Assay [2] addresses BDNF/NT-3 growth factors receptor (Homo sapiens, UniProt Q16620). Briefly: Inhibition of TrkB (unknown origin) using Tyr1 peptide as substrate in presence of ATP measured after 2 hrs by FRET-based Z-Lyte kinase assay.
Assay [3] has as its system BaF3. Briefly: Antiproliferative activity against mouse BaF3 cells transfected with wild type ETV6-NTRK3 (unknown origin) assessed as cell viability measured after 72 hrs by Micro plate reader method. The note with it: BaF3, 72 h.
Assay [4] concerns BaF3. Briefly: Antiproliferative activity against mouse BaF3 cells assessed as cell viability measured after 72 hrs by Micro plate reader method. Type of assay: functional, cell-based. As to conditions: BaF3, 72 h.
In assay [5] the test system is BaF3. In words: Antiproliferative activity against mouse BaF3 cells transfected with wild type CD74-NTRK1 (unknown origin) assessed as cell viability measured after 72 hrs by Micro plate reader method. The note with it: BaF3, 72 h.
Assay [6] relates to BaF3. In words: Antiproliferative activity against mouse BaF3 cells transfected with wild type ETV6-NTRK2 (unknown origin) assessed as cell viability measured after 72 hrs by Micro plate reader method. The note with it: BaF3, 72 h.
In assay [7] the test system is BaF3. Briefly: Antiproliferative activity against mouse BaF3 cells transfected with wild type ETV6-NTRK2 (unknown origin) harbouring G639R mutation assessed as cell viability measured after 72 hrs by Micro plate reader method. Type of assay: functional, cell-based. As to conditions: BaF3, 72 h.
Assay [8] deals with BaF3. In words: Antiproliferative activity against mouse BaF3 cells transfected with wild type CD74-NTRK1 (unknown origin) harbouring G595R mutation assessed as cell viability measured after 72 hrs by Micro plate reader method. Format: functional, cell-based. As to conditions: BaF3, 72 h.
The subject of assay [9] is BaF3. In words: Antiproliferative activity against mouse BaF3 cells transfected with wild type ETV6-NTRK3 (unknown origin) harbouring G623R mutation assessed as cell viability measured after 72 hrs by Micro plate reader method. Format: functional, cell-based. As to conditions: BaF3, 72 h.
The test system of assay [10] is BaF3. Briefly: Antiproliferative activity against mouse BaF3 cells transfected with wild type CD74-NTRK1 (unknown origin) harbouring G667C mutation assessed as cell viability measured after 72 hrs by Micro plate reader method. Format: functional, cell-based. As to conditions: BaF3, 72 h.
Assay [11] concerns BaF3. Briefly: Antiproliferative activity against mouse BaF3 cells transfected with wild type ETV6-NTRK3 (unknown origin) harbouring G696A mutation assessed as cell viability measured after 72 hrs by Micro plate reader method. Format: functional, cell-based. The note with it: BaF3, 72 h.

BDNF/NT-3 growth factors receptor, sequence (Q16620 whole entry): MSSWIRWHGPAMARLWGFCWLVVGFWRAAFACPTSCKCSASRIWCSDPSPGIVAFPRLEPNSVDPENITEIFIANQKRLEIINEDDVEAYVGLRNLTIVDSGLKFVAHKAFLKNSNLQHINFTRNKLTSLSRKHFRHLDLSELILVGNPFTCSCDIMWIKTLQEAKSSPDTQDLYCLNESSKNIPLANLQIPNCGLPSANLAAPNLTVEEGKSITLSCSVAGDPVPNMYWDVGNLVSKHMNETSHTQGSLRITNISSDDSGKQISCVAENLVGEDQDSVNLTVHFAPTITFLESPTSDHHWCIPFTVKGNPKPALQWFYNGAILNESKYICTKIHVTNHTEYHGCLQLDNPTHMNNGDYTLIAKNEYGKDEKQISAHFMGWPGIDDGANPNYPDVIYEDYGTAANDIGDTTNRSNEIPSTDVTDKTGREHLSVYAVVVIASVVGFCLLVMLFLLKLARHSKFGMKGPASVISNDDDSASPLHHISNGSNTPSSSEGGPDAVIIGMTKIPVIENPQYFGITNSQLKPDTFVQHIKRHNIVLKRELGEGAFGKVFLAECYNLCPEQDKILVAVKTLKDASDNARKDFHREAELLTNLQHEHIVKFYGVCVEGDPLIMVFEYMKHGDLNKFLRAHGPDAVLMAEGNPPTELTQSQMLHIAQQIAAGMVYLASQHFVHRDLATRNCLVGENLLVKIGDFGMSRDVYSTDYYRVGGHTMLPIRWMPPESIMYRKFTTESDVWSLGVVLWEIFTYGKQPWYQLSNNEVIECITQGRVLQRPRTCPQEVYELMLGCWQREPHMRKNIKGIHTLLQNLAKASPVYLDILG
High affinity nerve growth factor receptor, sequence (P04629 whole entry): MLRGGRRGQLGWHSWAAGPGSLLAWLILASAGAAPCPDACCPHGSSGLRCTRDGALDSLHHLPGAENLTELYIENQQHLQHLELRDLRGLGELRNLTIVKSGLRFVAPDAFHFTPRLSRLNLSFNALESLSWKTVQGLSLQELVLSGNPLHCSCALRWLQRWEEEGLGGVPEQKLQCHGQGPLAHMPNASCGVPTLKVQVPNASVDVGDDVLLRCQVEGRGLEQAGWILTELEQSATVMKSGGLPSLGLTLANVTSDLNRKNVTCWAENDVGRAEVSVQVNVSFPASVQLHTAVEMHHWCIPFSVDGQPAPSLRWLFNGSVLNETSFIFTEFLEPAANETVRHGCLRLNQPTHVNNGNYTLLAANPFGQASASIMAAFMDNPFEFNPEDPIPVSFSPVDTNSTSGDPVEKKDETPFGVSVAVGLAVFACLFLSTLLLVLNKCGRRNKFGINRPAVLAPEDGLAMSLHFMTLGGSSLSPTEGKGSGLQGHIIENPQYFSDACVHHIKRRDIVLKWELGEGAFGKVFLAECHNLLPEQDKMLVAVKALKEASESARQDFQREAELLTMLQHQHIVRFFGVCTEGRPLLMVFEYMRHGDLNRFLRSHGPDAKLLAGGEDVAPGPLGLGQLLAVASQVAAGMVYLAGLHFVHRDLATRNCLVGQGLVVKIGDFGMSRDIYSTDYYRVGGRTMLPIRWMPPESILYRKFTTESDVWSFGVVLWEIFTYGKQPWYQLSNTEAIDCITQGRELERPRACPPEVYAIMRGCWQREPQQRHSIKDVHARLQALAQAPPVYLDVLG

For `Fc1ccccc1CNc1ccc2[nH]nc(/C=C/c3ccccn3)c2c1`, the IC50 was found to be 8.8 nM in [1] and 36.2 nM in assay [2].

Take `O=C(Nc1ccc2[nH]nc(/C=C/c3ccccn3)c2c1)c1cc(F)cc(F)c1`: the IC50 in assay [1] was 189 nM; in [2], 244 nM.

In the case of `Fc1cc(F)cc(OCc2ccc3[nH]nc(/C=C/c4ccccn4)c3c2)c1`, the IC50 came out at 20.9 nM in assay [1] and 7.2 nM in assay [2].

As for `C(=C\c1n[nH]c2ccc(NCc3ccccc3)cc12)/c1ccccn1`, the results for the IC50 in assay [1] and in assay [2] were 10.6 nM and 1.1 nM, respectively.

With `Fc1cc(F)cc(Oc2ccc3[nH]nc(/C=C/c4ccccn4)c3c2)c1`, the IC50 in assay [1] was 23.3 nM; in assay [2], 4 nM.

Turning to `Fc1cccc(CNc2ccc3[nH]nc(/C=C/c4ccccn4)c3c2)c1`, the results for the 50% inhibitory concentration (IC50) in assay [1] and in assay [2] were 5.7 nM and 4.9 nM, respectively.

For the compound `CN(c1cc(F)cc(F)c1)c1ccc2[nH]nc(/C=C/c3ccccn3)c2c1`, the half-maximal inhibitory concentration (IC50) in assay [1] is 40.6 nM; in assay [2] it was 23.6 nM.

For `Fc1cc(F)cc(Nc2ccc3[nH]nc(/C=C/c4ccccn4)c3c2)c1`, in [2], the half-maximal inhibitory concentration (IC50) worked out at 30.7 nM.

`Fc1cc(CNc2ccc3[nH]nc(/C=C/c4ccccn4)c3c2)cc(C(F)(F)F)c1`: the IC50 in assay [1] came out at 76.3 nM; in assay [2], 245 nM.

On to `Fc1cc(F)cc(-c2ccc3[nH]nc(/C=C/c4ccccn4)c3c2)c1`, for which the IC50 in assay [1] stood at 254 nM; in assay [2], 729 nM.

As for `CN(Cc1cc(F)cc(F)c1)c1ccc2[nH]nc(/C=C/c3ccccn3)c2c1`, the IC50 came to 29 nM in assay [1] and 8 nM in assay [2].

For `Fc1cc(F)cc(CNc2ccc3[nH]nc(/C=C/c4ccccn4)c3c2)c1`, the IC50 in the assay on BaF3 [3] was determined as 14 nM; in assay [1], 1.5 nM; in the assay on BaF3 [4], 489 nM; in assay [2], 8.3 nM; with BaF3 [5] it was 35 nM; with BaF3 [6], 34 nM.

For the compound `Fc1cc(Cl)cc(CNc2ccc3[nH]nc(/C=C/c4ccccn4)c3c2)c1`, the IC50 in assay [1] came to 2 nM; in assay [2] it was 15.4 nM.

Consider `COc1cc(F)cc(CNc2ccc3[nH]nc(/C=C/c4ccccn4)c3c2)c1`, for which the IC50 in assay [1] was determined as 3.1 nM; in assay [2] it was 26.7 nM.

On to `Fc1cc(F)cc(Cc2ccc3[nH]nc(/C=C/c4ccccn4)c3c2)c1`, for which the IC50 with BaF3 [3] was determined as 125 nM; in assay [1], 7.6 nM; in assay [2], 1.3 nM; in the assay with BaF3 [5], 133 nM; in the assay on BaF3 [6] it was 161 nM.

`N#Cc1cc(F)cc(CNc2ccc3[nH]nc(/C=C/c4ccccn4)c3c2)c1`: the concentration for half-maximal inhibition (IC50) in assay [1] stood at 3.5 nM; in assay [2], 17.7 nM.

As to `Fc1cc(F)cc(COc2ccc3[nH]nc(/C=C/c4ccccn4)c3c2)c1`, the half-maximal inhibitory concentration (IC50) stood at 118 nM in the assay on BaF3 [3]; 13.2 nM in assay [1]; 1.2 nM in [2]; 133 nM in the assay on BaF3 [5]; 169 nM with BaF3 [6].

As for `O=C(Nc1cnn2ccc(N3CCC[C@@H]3c3cc(F)ccc3F)nc12)N1CC[C@H](O)C1` [LAROTRECTINIB], the IC50 in the assay on BaF3 [7] was 2240 nM; with BaF3 [3], 13 nM; in the assay with BaF3 [8], 539 nM; in the assay with BaF3 [9], 1200 nM; in the assay on BaF3 [4], over 10000 nM; in the assay with BaF3 [10] it was 184 nM. In addition, the figures for the IC50 in the assay on BaF3 [5], with BaF3 [11] and with BaF3 [6] were 16 nM, 54 nM and 40 nM, respectively.

In the case of `Fc1cc(F)cc(C#Cc2ccc3[nH]nc(/C=C/c4ccccn4)c3c2)c1`, the IC50 in assay [1] and in assay [2] was over 1000 nM in each case.

Regarding `Cc1cc(F)cc(CNc2ccc3[nH]nc(/C=C/c4ccccn4)c3c2)c1`, the half-inhibitory concentration (IC50) was 10.4 nM in assay [1] and 50.1 nM in assay [2].

Consider `O=C(Nc1cc(F)cc(F)c1)c1ccc2[nH]nc(/C=C/c3ccccn3)c2c1`, for which the IC50 in [1] and in [2] was over 1000 nM in each case.

For `Fc1cc(F)cc(NCc2ccc3[nH]nc(/C=C/c4ccccn4)c3c2)c1`, the half-maximal inhibitory concentration (IC50) in assay [1] stood at 10.4 nM; in [2], 3.5 nM.

Turning to `CN(Cc1ccc2[nH]nc(/C=C/c3ccccn3)c2c1)c1cc(F)cc(F)c1`, the IC50 in [1] came to 12 nM; in [2], 42.5 nM.

Turning to `Fc1cc(F)cc(CCc2ccc3[nH]nc(/C=C/c4ccccn4)c3c2)c1`, the half-inhibitory concentration (IC50) was 3.7 nM in assay [1] and 8.5 nM in assay [2].

As for `Fc1cc(Br)cc(CNc2ccc3[nH]nc(/C=C/c4ccccn4)c3c2)c1`, the 50% inhibitory concentration (IC50) in assay [1] was 10.4 nM; in assay [2], 30.6 nM.

On to `Fc1ccc(CNc2ccc3[nH]nc(/C=C/c4ccccn4)c3c2)cc1`, for which the concentration for half-maximal inhibition (IC50) in assay [1] is 49.3 nM; in assay [2], 78.9 nM.

On to `Fc1cc(F)cc(Sc2ccc3[nH]nc(/C=C/c4ccccn4)c3c2)c1`, for which the figures for the concentration for half-maximal inhibition (IC50) in [1] and in assay [2] were 23.9 nM and 4.8 nM, respectively.

By IC50 is commonly meant the concentration that inhibits the measured activity by half.
